Literature values in article PMC3184248 (Angewandte Chemie (International ed. in English), 2011).

Assays:
[1] = 1.5T, 37 °C
[2] = 1.5T, 37 °C; remark: listed apart in the source

- relaxivity in plasma [1]: 4.1 mM⁻¹ s⁻¹
- relaxivity in buffer [2]: 3.3 mM⁻¹ s⁻¹
Substance: GdDTPA
